Source: PMC10612060 (Viruses, 2023)
pEC50: −log10 of the molar value. Values joined by “and” are separate entries in the source; they are usually repeats but may differ in a detail not shown here. Equal values may be shown once. Read-outs that look alike come from different tables or passages of the source.

Experiments:
[1] = Adverse effects in rodents at exposure of the maximum dose; type: in vivo; settings: same exposure conditions as the maximum dose administered to mice
[2] = in vivo; parameters: species or system mice; settings: mouse plasma, simulated; for Cmax / AUC(0-t): BALB/c, mouse, in vivo, po; for AUC(0-t): read-out: AUC0–48h
[3] = test system: SARS-CoV-2 gamma strain (hCoV-19/Japan/TY7-501/2021); settings: cited from earlier work; for Viral titer in lungs: twice daily for 2 d, Day 2, individual mice 1-5, previously reported ref 12
[4] = test system: SARS-CoV-2 gamma strain hCoV-19/Japan/TY7-501/2021; type: in vivo, BALB/c mice
[5] = test system: SARS-CoV-2 gamma strain (hCoV-19/Japan/TY7-501/2021); parameters: method as in earlier work; settings: extrapolated to 100% mouse serum, cited from earlier work
[6] = 8 mg/kg, thrice daily for 2 d, 8 mg/kg oral
[7] = 8 mg/kg, twice daily for 2 d, 8 mg/kg oral
[8] = 16 mg/kg, once daily for 2 d, 16 mg/kg oral
[9] = 16 mg/kg, thrice daily for 2 d, 16 mg/kg oral
[10] = 16 mg/kg, twice daily for 2 d, 16 mg/kg oral
[11] = 32 mg/kg, once daily for 2 d, 32 mg/kg oral
[12] = 32 mg/kg, one shot, 32 mg/kg oral
[13] = 32 mg/kg, thrice daily for 2 d, 32 mg/kg oral
[14] = 32 mg/kg, twice daily for 2 d, 32 mg/kg oral
[15] = 64 mg/kg, once daily for 2 d, 64 mg/kg oral
[16] = 64 mg/kg, one shot, 64 mg/kg oral
[17] = 64 mg/kg, thrice daily for 2 d, 64 mg/kg oral
[18] = 64 mg/kg, twice daily for 2 d, 64 mg/kg oral

## Cn1cnc(Cn2c(=O)[nH]/c(=N\c3cc4cn(C)nc4cc3Cl)n(Cc3cc(F)c(F)cc3F)c2=O)n1 [ensitrelvir, ensitrelvir fumaric acid]
[1]
  Adverse effects: No adverse effects were observed
[2]; [6]
  Cmax: 21500 ng/mL
  AUC(0-t): 657 µg·h/mL
[2]; [7]
  Cmax: 18100 ng/mL
  AUC(0-t): 446 µg·h/mL
[2]; [8]
  Cmax: 38800 ng/mL
  AUC(0-t): 475 µg·h/mL
[2]; [9]
  Cmax: 47600 ng/mL
  AUC(0-t): 1390 µg·h/mL
[2]; [10]
  Cmax: 41300 ng/mL
  AUC(0-t): 941 µg·h/mL
[2]; [11]
  Cmax: 72500 ng/mL
  AUC(0-t): 1020 µg·h/mL
[2]; [12]
  Cmax: 72400 ng/mL
  AUC(0-t): 510 µg·h/mL
[2]; [13]
  Cmax: 96000 ng/mL
  AUC(0-t): 2960 µg·h/mL
[2]; [14]
  Cmax: 79700 ng/mL
  AUC(0-t): 2010 µg·h/mL
[2]; [15]
  Cmax: 160000 ng/mL
  AUC(0-t): 2670 µg·h/mL
[2]; [16]
  Cmax: 159000 ng/mL
  AUC(0-t): 1340 µg·h/mL
[2]; [17]
  Cmax: 232000 ng/mL
  AUC(0-t): 7650 µg·h/mL
[2]; [18]
  Cmax: 188000 ng/mL
  AUC(0-t): 5230 µg·h/mL
[2]; once daily for 2 d, 16 mg/kg oral
  C48h: 75.8 ng/mL
[2]; once daily for 2 d, 32 mg/kg oral
  C48h: 210 ng/mL
[2]; once daily for 2 d, 64 mg/kg oral
  C48h: 1290 ng/mL
[2]; one shot, 32 mg/kg oral
  C48h: 0.0591 ng/mL
[2]; one shot, 64 mg/kg oral
  C48h: 1.11 ng/mL
[2]; thrice daily for 2 d, 8 mg/kg oral
  C48h: 5740 ng/mL
[2]; thrice daily for 2 d, 16 mg/kg oral
  C48h: 11,600 ng/mL
[2]; thrice daily for 2 d, 32 mg/kg oral
  C48h: 30,000 ng/mL
[2]; thrice daily for 2 d, 64 mg/kg oral
  C48h: 88,300 ng/mL
[2]; twice daily for 2 d, 8 mg/kg oral
  C48h: 1840 ng/mL
[2]; twice daily for 2 d, 16 mg/kg oral
  C48h: 3760 ng/mL
[2]; twice daily for 2 d, 32 mg/kg oral
  C48h: 11,400 ng/mL
[2]; twice daily for 2 d, 64 mg/kg oral
  C48h: 42,000 ng/mL
[3]; 8 mg/kg oral from 24 h post-infection, 8 mg/kg
  Viral titer in lungs: 5.80 log10 TCID50/mL (2×) and 5.97 log10 TCID50/mL (2×) and 5.63 log10 TCID50/mL
[3]; 16 mg/kg oral from 24 h post-infection, 16 mg/kg
  Viral titer in lungs: 5.80 log10 TCID50/mL and 5.63 log10 TCID50/mL and 5.53 log10 TCID50/mL (2×) and 4.97 log10 TCID50/mL
[3]; 32 mg/kg oral from 24 h post-infection, 32 mg/kg
  Viral titer in lungs: 4.30 log10 TCID50/mL and 3.80 log10 TCID50/mL and 4.63 log10 TCID50/mL (3×)
[3]; 64 mg/kg oral from 24 h post-infection, 64 mg/kg
  Viral titer in lungs: 2.80 log10 TCID50/mL and 3.80 log10 TCID50/mL (2×) and 3.63 log10 TCID50/mL and 3.30 log10 TCID50/mL
[4]; given during the viral clearance phase
  Antiviral activity when administration delayed 72 h post-infection: dose-dependent antiviral activity
[4]; mouse, in vivo
  Dose that significantly lowered lung viral titers compared to vehicle: ≥ 8 mg/kg
[5]
  Mouse PA-EC50: 2.09 µg/mL
[5]; read-out: Mouse PA-EC50
  pEC50: 5.41

## CC(C)(C)[C@H](NC(=O)C(F)(F)F)C(=O)N1C[C@H]2[C@@H]([C@H]1C(=O)N[C@H](C#N)C[C@@H]1CCNC1=O)C2(C)C [nirmatrelvir, reference compound]
[3]; delayed-treatment mouse model
  Antiviral activity in this model: demonstrates antiviral activity
